Measured values published in patent US9801901B2, “Alginate oligomers for use in overcoming multidrug resistance in bacteria” (priority 2009, dated 2017).
≈ marks a conversion by molar mass, not a printed value. Where two headings read alike, the source gives them in different places. Marks after values point to notes of the source that are not given here.

What was measured:
[1] = test system: V10 (Egypt) Acinetobacter lwoffii; assay: MIC assay, CAMHB with alginate oligomer, no visible growth; format: cell-based; details: Table 5, V10 MDR Acin. lwoff
[2] = test system: V9 (Egypt) Acinetobacter baumannii; assay: as above; format: cell-based; details: Table 5, V9 MDR Acin. baum
[3] = test system: V12 5725 (Wales) Klebsiella pneumoniae; assay: as above; format: cell-based; details: Table 5, V12 MDR Kleb pneu
[4] = test system: Pseudomonas aeruginosa (MDR 301, PSA, V2); assay: MIC-assay, Mueller-Hinton broth with G-block alginate, 384-well, OD600; details: Pseudomonas aeruginosa, Table 8, V2
[5] = test system: PA01 Pseudomonas aeruginosa ATCC 15692; assay: MIC assay, two-fold antibiotic dilutions in CAMHB with alginate oligomer, no visible growth; format: cell-based; details: Pseudomonas aeruginosa, ATCC15692, Table 1, PA01, read-out: MIC
[6] = test system: V22 6056 Acinetobacter; assay: MIC assay, CAMHB with alginate oligomer, no visible growth; format: cell-based, Acinetobacter lwoffii; details: Table 5, V22 MDR Acin. lwoff
[7] = test system: Acinetobacter lwoffii (6056, V22); assay: MIC-assay, Mueller-Hinton broth with G-block alginate, 384-well, OD600
[8] = test system: Pseudomonas aeruginosa CFA 24-1, clinical mucoid strain (R80); assay: MIC assay, CAMHB with alginate oligomer, no visible growth; format: cell-based; details: Pseudomonas aeruginosa, Table 1, R80, read-out: MIC
[9] = test system: strains of Klebsiella pneumoniae displaying MDR phenotypes; assay: MIC-assay, Mueller-Hinton broth with G-block alginate, 384-well, OD600 (Table 10); format: cell-based; details: read-out: MIC
Source text: Minimum inhibitory concentration (MICs) of different antibiotics for strains of Klebsiella pneumoniae displaying MDR phenotypes in the presence of varying concentrations of OligoCF-5/20 (0-10%). (MIC values are expressed in μg ml^−1).

[10] = test system: MDR Providencia stuartii; assay: MIC-assay, Mueller-Hinton broth with G-block alginate, 384-well, OD600 (Table 11); format: cell-based; details: Providencia stuartii (IR57 India, V7) MDR
Source text: (§1) Minimum inhibitory concentration (MICs) of different antibiotics for strains of E. coli and Providencia stuartii displaying MDR phenotypes in the presence of varying concentrations of OligoCF-5/20 (0-10%). (MIC values are expressed in μg ml^−1).

[11] = test system: strains of E. coli displaying MDR phenotypes; assay: as above; format: cell-based; details: Escherichia coli, Escherichia coli (5702, Wales, V11) MDR, read-out: MIC
Source text: as §1

[12] = test system: Burkholderia cepacia (1322, V23); assay: MIC-assay, Mueller-Hinton broth with G-block alginate, 384-well, OD600
[13] = test system: Acinetobacter baumannii (MDR ACB, Libya, V4); assay: as above
[14] = Table 9, G-block (OligoCF-5/20) 0%
[15] = Table 9, G-block (OligoCF-5/20) 2%
[16] = Table 9, G-block (OligoCF-5/20) 6%
[17] = Table 9, G-block (OligoCF-5/20) 10%

For `CN(C)[C@@H]1C(O)=C(C(N)=O)C(=O)[C@@]2(O)C(O)=C3C(=O)c4c(O)cccc4[C@@](C)(O)[C@H]3[C@H](O)[C@@H]12` [Oxytetracycline], the MIC ([1]; Acinetobacter lwoffii, OligoCF-5/20 0G, read-out: MIC) was 0.5 µg/mL (≈ 1.09 µM), the MIC ([1]; OligoCF-5/20 +2% G) was 0.5 µg/mL (≈ 1.09 µM) and the MIC ([1]; OligoCF-5/20 +6% G) was 0.5 µg/mL (≈ 1.09 µM). The MIC ([1]; OligoCF-5/20 +10% G) was 0.25^† μg/ml, the MIC ([2]; Acinetobacter baumannii, OligoCF-5/20 0G, read-out: MIC) was 2 µg/mL (≈ 4.34 µM) and the MIC ([2]; OligoCF-5/20 +2% G) was 2 µg/mL (≈ 4.34 µM). For the same compound, the MIC ([2]; OligoCF-5/20 +6% G) was 1^† μg/ml, the MIC ([2]; OligoCF-5/20 +10% G) was 4^‡ μg/ml and the MIC ([3]; Klebsiella pneumoniae, OligoCF-5/20 0G, read-out: MIC) was 1 µg/mL (≈ 2.17 µM). It also gave an MIC ([3]; OligoCF-5/20 +2% G) of 1 µg/mL (≈ 2.17 µM), an MIC ([3]; OligoCF-5/20 +6% G) of 1 µg/mL (≈ 2.17 µM) and an MIC ([3]; OligoCF-5/20 +10% G) of 1 µg/mL (≈ 2.17 µM). It also gave an MIC ([4]; G-block (OligoCF-5/20) 0%) of 16 µg/mL (≈ 34.7 µM), an MIC ([4]; G-block (OligoCF-5/20) 2%) of 16 µg/mL (≈ 34.7 µM) and an MIC ([4]; G-block (OligoCF-5/20) 6%) of 8 µg/mL (≈ 17.4 µM). For the same compound, the MIC ([4]; G-block (OligoCF-5/20) 10%) was 8 µg/mL (≈ 17.4 µM), the MIC ([5]; OligoCF-5/20 0G) was 8 µg/mL (≈ 17.4 µM) and the MIC ([5]; OligoCF-5/20 +2% G) was 4 µg/mL (≈ 8.69 µM). The MIC ([5]; OligoCF-5/20 +6% G) was 4 µg/mL (≈ 8.69 µM), the MIC ([5]; OligoCF-5/20 +10% G) was 4 µg/mL (≈ 8.69 µM) and the MIC ([6]; Acinetobacter, OligoCF-5/20 0G, read-out: MIC) was 2 µg/mL (≈ 4.34 µM). The MIC ([6]; OligoCF-5/20 +2% G) was 2 µg/mL (≈ 4.34 µM), the MIC ([6]; OligoCF-5/20 +6% G) was 2 µg/mL (≈ 4.34 µM) and the MIC ([6]; OligoCF-5/20 +10% G) was 8^‡ μg/ml. The MIC [7, 14] was < 2 µg/mL, the MIC [7, 15] was < 2 µg/mL and the MIC [7, 16] was < 2 µg/mL. For the same compound, the MIC [7, 17] was < 2 µg/mL, the MIC ([8]; OligoCF-5/20 0G) was 8 µg/mL (≈ 17.4 µM) and the MIC ([8]; OligoCF-5/20 +2% G) was 8 µg/mL (≈ 17.4 µM). The MIC ([8]; OligoCF-5/20 +6% G) was 4 µg/mL (≈ 8.69 µM), the MIC ([8]; OligoCF-5/20 +10% G) was 4 µg/mL (≈ 8.69 µM) and the MIC ([9]; Klebsiella pneumoniae (5712, Wales, V12) MDR, G-block (OligoCF-5/20) 0%) was 1 µg/mL (≈ 2.17 µM). For the same compound, the MIC ([9]; Klebsiella pneumoniae (5712, Wales, V12) MDR, G-block (OligoCF-5/20) 2%) was 1 µg/mL (≈ 2.17 µM), the MIC ([9]; Klebsiella pneumoniae (5712, Wales, V12) MDR, G-block (OligoCF-5/20) 6%) was 1 µg/mL (≈ 2.17 µM) and the MIC ([9]; Klebsiella pneumoniae (5712, Wales, V12) MDR, G-block (OligoCF-5/20) 10%) was 1 µg/mL (≈ 2.17 µM). It also gave an MIC ([9]; Klebsiella pneumoniae (IR25, India, V6) MDR, G-block (OligoCF-5/20) 0%) of 2 µg/mL (≈ 4.34 µM), an MIC ([9]; Klebsiella pneumoniae (IR25, India, V6) MDR, G-block (OligoCF-5/20) 2%) of 2 µg/mL (≈ 4.34 µM) and an MIC ([9]; Klebsiella pneumoniae (IR25, India, V6) MDR, G-block (OligoCF-5/20) 6%) of 2 µg/mL (≈ 4.34 µM). The MIC ([9]; Klebsiella pneumoniae (IR25, India, V6) MDR, G-block (OligoCF-5/20) 10%) was 2 µg/mL (≈ 4.34 µM), the MIC ([9]; Klebsiella pneumoniae (K3, India, V8) MDR, G-block (OligoCF-5/20) 0%) was 512 µg/mL (≈ 1110 µM) and the MIC ([9]; Klebsiella pneumoniae (K3, India, V8) MDR, G-block (OligoCF-5/20) 2%) was 512 µg/mL (≈ 1110 µM). It also gave an MIC ([9]; Klebsiella pneumoniae (K3, India, V8) MDR, G-block (OligoCF-5/20) 6%) of 512 µg/mL (≈ 1110 µM), an MIC ([9]; Klebsiella pneumoniae (K3, India, V8) MDR, G-block (OligoCF-5/20) 10%) of 1020 µg/mL (≈ 2220 µM) and an MIC ([10]; G-block (OligoCF-5/20) 0%) of 128 µg/mL (≈ 278 µM). The MIC ([10]; G-block (OligoCF-5/20) 2%) was 128 µg/mL (≈ 278 µM), the MIC ([10]; G-block (OligoCF-5/20) 6%) was 128 µg/mL (≈ 278 µM) and the MIC ([10]; G-block (OligoCF-5/20) 10%) was 128 µg/mL (≈ 278 µM). For the same compound, the MIC ([11]; G-block (OligoCF-5/20) 0%) was 0.5 µg/mL (≈ 1.09 µM), the MIC ([11]; G-block (OligoCF-5/20) 2%) was 0.5 µg/mL (≈ 1.09 µM) and the MIC ([11]; G-block (OligoCF-5/20) 6%) was 0.5 µg/mL (≈ 1.09 µM). The MIC ([11]; G-block (OligoCF-5/20) 10%) was 0.25 µg/mL (≈ 0.543 µM), the MIC ([12]; Table 8, G-block (OligoCF-5/20) 0%) was 128 µg/mL (≈ 278 µM) and the MIC ([12]; Table 8, G-block (OligoCF-5/20) 2%) was 128 µg/mL (≈ 278 µM). It also gave an MIC ([12]; Table 8, G-block (OligoCF-5/20) 6%) of 64 µg/mL (≈ 139 µM), an MIC ([12]; Table 8, G-block (OligoCF-5/20) 10%) of 64 µg/mL (≈ 139 µM) and an MIC [13, 14] of 2 µg/mL (≈ 4.34 µM). For the same compound, the MIC [13, 15] was 2 µg/mL (≈ 4.34 µM), the MIC [13, 16] was 2 µg/mL (≈ 4.34 µM) and the MIC [13, 17] was 1 µg/mL (≈ 2.17 µM).
